Data as given in patent publication US20250115571A1, “OXOPIPERAZINE DERIVATIVES” (Inthera Bioscience AG, priority 2017, published 2025).

Tests used:
[1] = tested on: CaSki cells; experiment: Colony Formation Assay (CFA), 14 days; type: cell-based; conditions: Homo sapiens, Ca-Ski, 336 h; for inhibition at 0.7 µM: colony formation assay, class by % inhibition at 0.7, 6 or 50 μM
Text: Cell culture: CaSki cells were obtained from CLS GmbH, Eppelheim, Germany (cat. 300145) and subcultured in ready-to-use RPMI1640 Media (CLS GmbH cat. 820700) after addition of “Antibiotic Antimycotic Solution” (Sigma-Aldrich, St Louis, USA, cat. A5955) at 1:100 dilution. CaSki cells were expanded and aliquots kept frozen in liquid nitrogen according to manufacturer's instructions. Once thawed, aliquots were passaged every second or third day at a seed density of 20′000 cells/cm^2; and used for a maximum of twenty passages.
Preparation of the cells for CFA: Cell culture flasks were rinsed twice with Ca++/Mg++-free Phosphate-Buffered Saline (DPBS, CLS GmbH cat. 860015) and incubated with Accutase (CLS GmbH cat. 830100) for 15 min at 37° C. Cells were resuspended in a four-fold volume of ready-to use RPMI, centrifuged at 300 g for 10 minutes, the supernatant discarded and the cells resuspended in ready-to-use RPMI1640 by pipetting up and down ten times with a serological pipette. Cell density was determined with a Via-1 Cassette (Chemometec, Allerod, Denmark) on a Nucleocounter NC 3000 (Chemometec). The required amount of cells was first diluted 1:10 in ready-to-use RPMI; cells pipetted five times up-down with a serological pipette; and the 1:10 solution added to the final volume needed for the whole assay setup. Cells were mixed again by pipetting up and down twenty times with a serological pipette. The final cell density was 70 cells/ml.
Seeding: Cells were seeded column-wise in 6-well plates, while triplicates were treated row-wise. Three ml cell suspension solution (210 cells) were added per well.
Treatment: Compound stock solutions were prepared at a concentration of 30 mM in 50% DMSO/50% water; and diluted in the same solution so that the volume added to the wells was of 5 μl and the final DMSO well concentration 0.08%. Untreated cells (negative controls) were incubated in a) medium only; and b) 0.08% DMSO. […] Tests showing less than 75% or more than 95% inhibition were repeated. The plates were swirled gently after addition of the compounds and the cells incubated for 14 days at 37° C. Culture incubation solutions were replaced after one week.
Staining: Colonies were washed twice with ice-cold DPBS and fixed on ice with 1 ml ice-cold 10% methanol solution for 30 min. The methanol solution was removed and colonies incubated with 0.1% Crystal Violet/DBPS for 20 min at room temperature. The wells were rinsed with water at room temperature, let dry and colonies were counted. Compounds e.g., compounds of Table 2 and 3 were classified as follows: […]

[2] = tested on: HPV-positive head-and-neck squamous cell carcinoma model #HN11303; experiment: Patient-derived xenograft mouse model for head-and-neck squamous cell carcinoma (HN11303); type: in vivo; conditions: subcutaneous HPV-positive HNSCC model, female NMRI nu/nu mice
Experimental: Female NMRI nu/nu mice were injected with cells derived from a human head-and-neck cancer (model #HN11303, an HPV-positive head-and-neck squamous cell carcinoma, EPO-GmbH, Berlin, Germany). The cells were inoculated subcutaneously into the left flank of 40 mice. Thirteen days later tumors reached a mean volume of approximately 107 mm^3, and mice were randomly assigned to five treatment groups of each eight mice (TABLE 23). Body weights were measured twice weekly. Tumor burden was assessed by caliper measurement twice weekly. Dosing breaks were applied when tolerability issues arose (body weight loss>10). The study was terminated five weeks post first dosing. The experiment was performed in the EPO animal testing facility (Experimental Pharmacology and Oncology GmbH, 13125 Berlin-Buch, Germany).

[3] = tested on: PC3; experiment: 9-day colony survival assay (CFA); type: cell-based; conditions: Homo sapiens, PC-3, 216 h, PC3 (prostate), read-out: GI50 (50% growth inhibition)
[4] = tested on: A549; experiment: 9-day colony survival assay (CFA); type: cell-based; conditions: Homo sapiens, 216 h, A549 (lung), read-out: GI50 (50% growth inhibition)
[5] = tested on: CaSki; experiment: 9-day colony survival assay (CFA); type: cell-based; conditions: Homo sapiens, Ca-Ski, 216 h, CaSki (cervix), read-out: GI50 (50% growth inhibition)
Text: Cell culture. CaSki cells (cervical cancer) were obtained from CLS GmbH, Eppelheim, Germany (cat #300145) and subcultured in ready-to-use RPMI1640 Media (CLS #820700) after addition of “Antibiotic Antimycotic Solution” (Sigma-Aldrich, St Louis, USA) at 1:100 dilution. The cells were expanded, and aliquots kept frozen in liquid nitrogen according to manufacturer's instructions; tested for mycoplasma contamination and genotyped (Microsynth AG, Balgach, Switzerland). Once thawed, aliquots were passaged every second or third day at a seed density of 20′000 cells/cm^2; and used for a maximum of twenty passages. For passaging, cell culture flasks were rinsed twice with Ca++/Mg++-free Phosphate-Buffered Saline (DPBS, CLS #860015) and incubated with Accutase (CLS #830100) for 15 min at 37° C. Cells were resuspended in a four-fold volume of ready-to-use RPMI, centrifuged at 300 g for ten minutes, the supernatant discarded and the cells resuspended in ready-to-use RPMI1640 by pipetting up and down five times with a serological pipette. Cell density was determined with a Via-1 Cassette (Chemometec, Allerod, Denmark) on a Nucleocounter NC 3000 (Chemometec). Where not stated, consumables and chemicals were purchased from well-known suppliers.
Preparation of the cells for CFA. Cell culture flasks were rinsed twice with DPBS and incubated with Accutase for 15 min at 37° C. Cells were resuspended in a four-fold volume of ready-to use RPMI, centrifuged at 300 g for ten minutes, the supernatant discarded and the cells resuspended in ready-to-use RPMI1640 by pipetting up and down ten times with a serological pipette. Cell density was determined with a Via-1 Cassette on a Nucleocounter NC 3000. The required amount of cells was first diluted 1:10 in ready-to-use RPMI; cells pipetted five times up-down with a serological pipette; and the 1:10 solution added to the final volume needed for the whole assay setup. Cells were mixed again by pipetting up and down twenty times with a serological pipette. The cell density used for the experiment was of 140 cells/ml.
Seeding. Cells were seeded row-wise in 12-well plates, while triplicates were treated column-wise (i.e. all the first rows were seeded first, then the second rows, and finally the third rows). One and a half ml cell suspension solution (a total of 210 cells) were added per well.
Treatment. Compound stock solutions were prepared at a concentration of 30 mM in 50% DMSO/50% water; and diluted in the same solution so that the volume added to the wells was of 2.5 μl and the final DMSO well concentration of 0.08%. Untreated cells (negative controls) were incubated in a) medium only; and b) 0.08% DMSO. […] The plates were swirled gently after addition of the compounds and the cells incubated for nine days at 37° C. Culture incubation solutions were replaced after five days.
Staining. Colonies were washed twice with ice-cold DPBS and fixed on ice with 1 ml ice-cold 10% methanol solution for 30 min. The methanol solution was removed and colonies incubated with 0.1% Crystal Violet/DBPS for 20 min at room temperature. The wells were rinsed consecutively with 1.5, 1, and 0.5 ml water at room temperature and let dry.
Destaining and data evaluation. […] Absorbance was measured at 600 nm with a SpectraMax M2e reader (Molecular Devices, Sunnyvale, CA, USA). Percentage of colony formation was calculated from the average of the well triplicates compared to the untreated DMSO controls after subtraction of blank values. […]

[6] = tested on: HCT116; experiment: 9-day colony survival assay (CFA); type: cell-based; conditions: Homo sapiens, HCT-116, 216 h, HCT116 (colon), read-out: GI50 (50% growth inhibition)

Question: With `CC(C)C[C@@H]1NCCN([C@@H](CC(C)C)C(=O)N2CCC3(C[C@@H]2C)O[C@H]2CN(C)CC[C@H]2O3)C1=O` (stereo partly shown) [Compound 296] as the molecule, how does the inhibition at 0.7 µM [1] read?
Answer: The inhibition at 0.7 µM was < 0%.

Question: How did the inhibition at 0.7 µM [1] turn out when `CC(C)C[C@@H]1NCCN([C@H](C(=O)N2CCC(CC(N)=O)CC2)C(C)C)C1=O` [Compound 90, (1-{(S)-2-[(S)-3-Isobutyl-2-oxo-1-piperazinyl]-3-methylbutyryl}-4-piperidyl)acetamide] was run?
Answer: The inhibition at 0.7 µM was < 0%.

Question: For `CC(C)C[C@@H]1NCCN([C@@H](CC(C)C)C(=O)N2CCC3(C[C@@H]2C)O[C@H]2C[C@@H](N(C)C)C[C@H]2O3)C1=O` (stereo partly drawn) [Compound 292, (S)-1-[(S)-1-({(1R,5S,2′S)-7-(Dimethylamino)-2′-methylspiro[2.4-di-oxabicyclo[3.3.0]oc-tane-3,4′-piperidin]-1′-yl}carbonyl)-3-methylbutyl]-3-isobutyl-2-piperazinone], which inhibition at 0.7 µM [1] is on record?
Answer: Its inhibition at 0.7 µM is < 0%.

Question: For `CC(C)C[C@@H](C(=O)N1CCC(CC(N)=O)CC1)N1CCN[C@@H](CC(C)(C)C)C1=O` [Compound 114, (1-{(S)-2-[(S)-3-Neopentyl-2-oxo-1-piperazinyl]-4-methylvaleryl}-4-piperidyl)acetamide], which inhibition at 0.7 µM [1] is on record?
Answer: The inhibition at 0.7 µM was < 0%.

Question: Which inhibition at 10 µM ([1]; 10 μM, reference compound standard treatment, 14 days) does the source give for `CC(C)C[C@@H]1NCCN([C@@H](CC(C)C)C(=O)N2CCC(Cc3ncc[nH]3)CC2)C1=O` [Compound 57, (S)-1-[(S)-1-({4-[(1H-Imidazol-2-yl)methyl]-1-piperidyl}carbonyl)-3-methylbutyl]-3-isobutyl-2-piperazinone] here?
Answer: The inhibition at 10 µM was 80 to 90%.

Question: What about the “mean TV” value ([2]; day 13) of the same molecule?
Answer: Its value is 0.1073 cm^3.

Question: And the “mean TV” value ([2]; day 15)?
Answer: The value was 0.1106 cm^3.

Question: What about the “mean TV” value ([2]; day 18) of the same molecule?
Answer: Its value is 0.1166 cm^3.

Question: And the “mean TV” value ([2]; day 21)?
Answer: The value was 0.1081 cm^3.

Question: And the “mean TV” value ([2]; day 25)?
Answer: The value was 0.1233 cm^3.

Question: What about the “mean TV” value ([2]; day 29) of the same molecule?
Answer: The value was 0.1421 cm^3.

Question: What about the “mean TV” value ([2]; day 33) of the same molecule?
Answer: The value was 0.2009 cm^3.

Question: What about the “mean TV” value ([2]; day 36) of the same molecule?
Answer: The value was 0.1776 cm^3.

Question: With `CCCC[C@@H]1NCCN([C@@H](CC2CC2)C(=O)N2CCC(CC(N)=O)CC2)C1=O` [Compound 106, (1-{(S)-2-[(S)-3-Butyl-2-oxo-1-piperazinyl]-3-cyclopropylpro-pionyl}-4-piperidyl)acetamide] as the molecule, how does the inhibition at 0.7 µM [1] read?
Answer: The inhibition at 0.7 µM was < 0%.

Question: Which inhibition at 0.7 µM [1] does the source give for `CC(C)C[C@@H]1NCCN([C@@H](CC(C)C)C(=O)N2CCC3(C[C@@H]2C)OCC(c2ccccn2)CO3)C1=O` (stereo partly drawn) [Compound 285, (S)-1-[(S)-1-({(S)-8-Methyl-3-(2-pyridyl)-1,5-dioxa-9-aza-9-spiro[5.5]un-decyl}carbonyl)-3-methylbutyl]-3-isobutyl-2-piperazinone] here?
Answer: The inhibition at 0.7 µM was < 0%.

Question: Which GI50 [3] does the source give for `CC(C)C[C@H]1C(=O)N([C@@H](CC(C)C)C(=O)N2CCC3(C[C@@H]2C)OCC(CN2CCCC2)CO3)CCN1C` (stereo partly drawn) [Compound 287, (3S)-4-methyl-1-[(2S)-4-methyl-1-oxo-1-[(3s,6s,8S)-8-methyl-3-(pyrrolidin-1-ylmethyl)-1,5-dioxa-9-azaspiro[5.5]undec-an-9-yl]pentan-2-yl]-3-(2-methylpropyl)piper-azin-2-one (^≠), isomer Z] here?
Answer: Its GI50 is 7 nM.

Question: What about the GI50 [4] of the same molecule?
Answer: The GI50 was 20 nM.

Question: What about the GI50 [5] of the same molecule?
Answer: The GI50 was 13 nM.

Question: What about the GI50 [6] of the same molecule?
Answer: The GI50 was 1.5 nM.

Question: For `CC(C)(C)C[C@@H](C(=O)N1CCC(CC(N)=O)CC1)N1CCN[C@@H](CC2CC2)C1=O` [Compound 94, (1-{(S)-2-[(S)-3-(Cyclopropylmethyl)-2-oxo-1-piperazinyl]-4,4-dimethylvaleryl}-4-piperidyl)acetamide], which inhibition at 0.7 µM [1] is on record?
Answer: The inhibition at 0.7 µM was < 0%.

Question: How did the inhibition at 0.7 µM [1] turn out when `CC(C)C[C@@H]1NCCN([C@@H](CC(C)C)C(=O)N2CCC3(C[C@@H]2C)OC2CN(C)C[C@@H]2O3)C1=O` (stereo partly drawn) [Compound 300, (S)-1-[(S)-1-({(2′S)-7-Methyl-2′-methylspiro[2.4-dioxa-7-azabicyclo[3.3.0]oc-tane-3,4′-piperidin]-1′-yl}carbonyl)-3-methylbutyl]-3-isobutyl-2-piperazinone] was run?
Answer: The inhibition at 0.7 µM was < 0%.

Question: For `CC(C)C[C@@H]1NCCN([C@@H](CC(C)C)C(=O)N2CCC3(C[C@@H]2C)OCC(c2nccn2C)CO3)C1=O` (stereo partly drawn) [Compound 260, (S)-1-[(S)-1-({(S)-8-Methyl-3-(1-methyl-1H-imidazol-2-yl)-1,5-dioxa-9-aza-9-spiro[5.5]un-decyl}carbonyl)-3-methylbutyl]-3-isobutyl-2-piperazinone], which inhibition at 0.7 µM [1] is on record?
Answer: The inhibition at 0.7 µM was < 0%.
